One may read the IC50 as the midpoint of a concentration-inhibition curve. The GI50 is the concentration at which growth is held to half of that of the control. High values mean less potent growth inhibition, low ones more potent growth inhibition.

The source of these data is patent publication US8648092B2, “Imidazo[1,2-a]pyridine derivatives: preparation and pharmaceutical applications” (MEI Pharma, priority 2005, dated 2014).

Experiment [1] has as its target HDAC1 enzyme (recombinant GST-HDAC1) (Homo sapiens (Human), UniProt Q13547). The experiment is described as follows: In vitro HDAC assay for determination of IC50 values (BIOMOL fluorescent-based HDAC activity assay). Format: biochemical. Particulars: Flur de lys substrate, 2 h room temperature, read-out: IC50 (HDAC 1). As to the method: Biological Testing and Enzyme Assays Recombinant GST-HDAC1 Protein Expression and Purification
Human cDNA library was prepared using cultured SW620 cells. Amplification of human HDAC1 coding region from this cDNA library was cloned separately into the baculovirus expression pDEST20 vector (GATEWAY Cloning Technology, Invitrogen Pte Ltd). The pDEST20-HDAC1 construct was confirmed by DNA sequencing. Recombinant baculovirus was prepared using the Bac-To-Bac method following the manufacturer's instruction (Invitrogen Pte Ltd).
Expression of GST-HDAC1 was done by infecting SF9 cells (Invitrogen Pte Ltd) with pDEST20-HDAC1 baculovirus at MOI=1 for 48 h. Soluble cell lysate was incubated with pre-equilibrated Glutathione Sepharose 4B beads (Amersham) at 4° C. for 2 h. The beads were washed with PBS buffer for 3 times. The GST-HDAC1 protein was eluted by elution buffer containing 50 mM Tris, pH8.0, 150 mM NaCl, 1% Triton X-100 and 10 mM or 20 mM reduced Glutathione. The purified GST-HDAC1 protein was dialyzed with HDAC storage buffer containing 10 mM Tris, pH7.5, 100 mM NaCl and 3 mM MgCl2. 20% Glycerol was added to purified GST-HDAC1 protein before storage at −80° C.
In Vitro HDAC Assay for Determination of IC50 Values
The assay has been carried out in 96 well format and the BIOMOL fluorescent-based HDAC activity assay has been applied. […] Flur de lys Developer was added and the reaction was incubated for 10 min. Briefly, deacetylation of the substrate sensitizes it to the developer, which then generates a fluorophore. The fluorophore is excited with 360 nm light and the emitted light (460 nm) is detected on a fluorometric plate reader (Tecan Ultra Microplate detection system, Tecan Group Ltd.).
The analytical software, Prism 4.0 (GraphPad Software Inc) has been used to generate IC50 from a series of data.

A further experiment concerns Colo205 cells. Description: Cell-based proliferation assay for determination of GI50 values (CyQUANT). Further details: species or system human. To be noted: Homo sapiens. As for the experimental part:
Cell-Based Proliferation Assay for Determination of GI50 Values
Human cancer cell lines (e.g. Colo205) were obtained from ATCC. Colo205 cells were cultivated in RPMI 1640 containing 2 mM L-Glutamine, 5% FBS, 1.0 mM Na Pyruvate. Colo205 cells were seeded in 96-wells plate at 5000 cells per well. The plates were incubated at 37° C., 5% CO2, for 24 h. Cells were treated with compounds at various concentrations for 96 h. Cell growth was then monitored using CyQUANT® cell proliferation assay (Invitrogen Pte Ltd). Dose response curves were plotted to determine GI50 values for the compounds using XL-fit (ID Business Solution, Emeryville, Calif.). GI50 is defined as the concentration of compound required for 50% inhibition of cell growth.
The cellular or growth inhibition activity results of representative compounds are shown in Table 4 below (unit in the table is micromolar).

Chain of HDAC1 enzyme (recombinant GST-HDAC1) (Q13547 whole entry): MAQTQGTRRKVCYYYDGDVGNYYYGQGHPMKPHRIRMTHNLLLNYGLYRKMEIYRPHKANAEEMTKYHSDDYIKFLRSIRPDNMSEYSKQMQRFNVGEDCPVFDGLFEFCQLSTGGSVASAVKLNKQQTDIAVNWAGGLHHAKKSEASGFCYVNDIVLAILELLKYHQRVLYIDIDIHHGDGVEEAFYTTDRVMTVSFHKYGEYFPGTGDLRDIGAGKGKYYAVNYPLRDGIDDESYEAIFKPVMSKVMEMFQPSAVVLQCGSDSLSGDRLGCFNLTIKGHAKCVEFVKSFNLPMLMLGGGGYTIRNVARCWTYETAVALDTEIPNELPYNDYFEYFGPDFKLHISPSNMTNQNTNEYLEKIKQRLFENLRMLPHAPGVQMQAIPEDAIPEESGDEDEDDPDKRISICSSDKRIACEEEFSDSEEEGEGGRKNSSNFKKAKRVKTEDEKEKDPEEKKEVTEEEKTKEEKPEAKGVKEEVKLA

Consider `CCCCCCc1nc2cc(/C=C/C(=O)NO)ccn2c1NCCC(=O)NCCN(C)C` [Compound 20, 3-{3-[2-(2-Dimethylamino-ethylcarbamoyl)-ethylamino]-2-hexyl-imidazo[1,2-a]pyridin-7-yl}-N-hydroxy-acrylamide], for which the IC50 in experiment [1] is 99 nM. The compound also came in with a 50% growth inhibitory concentration (GI50) with Colo205 cells (COLO 205, 96 h treatment) of 28000 nM.

Turning to `CCCCN(CC)Cc1c(CC)nc2cc(/C=C/C(=O)NO)ccn12` [Compound 138, 3-{3-[(Butyl-ethyl-amino)-methyl]-2-ethyl-imidazo[1,2-a]pyridin-7-yl}-N-hydroxy-acrylamide], the IC50 in experiment [1] worked out at 50 nM. In the experiment on Colo205 cells (COLO 205, 96 h treatment), the GI50 was determined as 180 nM.

As to `O=C(/C=C/c1ccc2nc(CCc3ccccc3)c(Nc3ccc(N4CCCCC4)cc3)n2c1)NO` [Compound 3, N-Hydroxy-3-[2-phenethyl-3-(4-piperidin-1-yl-phenylamino)-imidazo[1,2-a]pyridin-6-yl]-acrylamide], in experiment [1], the IC50 was found to be 790 nM. The GI50 in the experiment on Colo205 cells (COLO 205, 96 h treatment) amounted to 1900 nM.

Consider `CCN(Cc1c(C(C)(C)C)nc2cc(/C=C/C(=O)NO)ccn12)CC1CCCCC1` [Compound 98, 3-{2-tert-Butyl-3-[(cyclohexylmethyl-ethyl-amino)-methyl]-imidazo[1,2-a]pyridin-7-yl}-N-hydroxy-acrylamide], for which the IC50 in experiment [1] turned out to be 190 nM. In the experiment on Colo205 cells (COLO 205, 96 h, 96 h treatment), this compound came in with a GI50 of 1100 nM.

Consider `CCCCCCc1nc2ccc(/C=C/C(=O)NO)cn2c1NCCC(=O)NCCN(C)C` [Compound 19, (E)-3-(3-(3-(2-(dimethylamino)ethylamino)-3-oxopropylamino)-2-hexylimidazo[1,2-a]pyridin-6-yl)-N-hydroxyacrylamide], for which, in experiment [1], the IC50 stood at 780 nM. In the experiment on Colo205 cells (COLO 205, 96 h treatment), the GI50 came out at 24000 nM.

As for `CN(Cc1c(C(C)(C)C)nc2cc(C=CC(=O)NO)ccn12)CC(C)(C)C` [Compound 104, 3-(2-tert-Butyl-3-{[(2,2-dimethyl-propyl)-methyl-amino]-methyl}-imidazo[1,2-a]pyridin-7-yl)-N-hydroxy-acrylamide], the IC50 in experiment [1] amounted to 780 nM. In addition, in the experiment with Colo205 cells (COLO 205, 96 h treatment), the GI50 was found to be 6300 nM.

Take `CCN(CCC(C)C)Cc1c(-c2ccccc2)nc2cc(/C=C/C(=O)NO)ccn12` [Compound 121, 3-(3-{[Ethyl-(3-methyl-butyl)-amino]-methyl}-2-phenyl-imidazo[1,2-a]pyridin-7-yl)-N-hydroxy-acrylamide]: the IC50 in experiment [1] turned out to be 30 nM. This compound had a GI50 with Colo205 cells (COLO 205, 96 h treatment) of 490 nM.

On to `CCCCCCc1nc2cc(/C=C/C(=O)NO)ccn2c1NCCC(=O)N(CCOC)C(C)C` [Compound 38, 3-(2-Hexyl-3-{2-[isopropyl-(2-methoxy-ethyl)-carbamoyl]-ethylamino}-imidazo[1,2-a]pyridin-7-yl)-N-hydroxy-acrylamide], for which, in experiment [1], the IC50 was 360 nM. Further, in the experiment with Colo205 cells (COLO 205, 96 h treatment), the GI50 was found to be 3500 nM.

Take `CCCCCCc1nc2cc(/C=C/C(=O)NO)ccn2c1NCCC(=O)NC(CO)C(C)C` (stereo not drawn) [Compound 27, 3-{2-Hexyl-3-[2-(1-hydroxymethyl-2-methyl-propylcarbamoyl)-ethylamino]-imidazo[1,2-a]pyridin-7-yl}-N-hydroxy-acrylamide]: in experiment [1], the IC50 worked out at 180 nM. The compound further had a GI50 in the experiment on Colo205 cells (COLO 205, 96 h treatment) of 8500 nM.

As for `CCCCCc1nc2cc(/C=C/C(=O)NO)ccn2c1CN(CC)CCC(C)(C)C` [Compound 131, 3-(3-{[(3,3-Dimethyl-butyl)-ethyl-amino]-methyl}-2-pentyl-imidazo[1,2a]pyridin-7-yl)-N-hydroxy-acrylamide], the IC50 in experiment [1] was found to be 30 nM. In the experiment with Colo205 cells (COLO 205, 96 h treatment), this compound yielded a 50% growth inhibitory concentration (GI50) of 150 nM.

With `CCCCN(CC)Cc1c(-c2ccccc2)nc2cc(/C=C/C(=O)NO)ccn12` [Compound 120, 3-{3-[(Butyl-ethylamino)-methyl]-2-phenyl-imidazo[1,2-a]pyridin-7-yl}-N-hydroxy-acrylamide], the half-maximal inhibitory concentration (IC50) in experiment [1] was 40 nM. In the experiment with Colo205 cells (COLO 205, 96 h treatment), this compound showed a GI50 of 680 nM.

Regarding `CCN(CCCSC)Cc1c(C(C)(C)C)nc2cc(/C=C/C(=O)NO)ccn12` [Compound 95, 3-(2-tert-Butyl-3-{[ethyl-(3-methylsulfanyl-propyl)-amino]-methyl}-imidazo[1,2-a]pyridin-7-yl)-N-hydroxy-acrylamide], in experiment [1], the IC50 is 90 nM. It took 600 nM to inhibit growth in the experiment with Colo205 cells (COLO 205, 96 h treatment) by half (GI50).
